Measurements as given in patent publication US8859615B2, “Compounds, compositions and methods for reducing toxicity and treating or preventing diseases” (priority 2008, dated 2014).
“And” between values parts separate entries of the source, which are not always exact repeats. Identical values can stand only once.

Tested on: human colon carcinoma HCT-116 xenografts
Experiment: Compound D with Iso-Oxazole-Fludelone or Isodehydelone in nude mice bearing HCT-116 xenografts
Conditions: mouse, in vivo

## iso-oxazole-fludelone (17-isooxazole-fludelone) [Iso-Flu]
  complete remission (CR): 6/6 and 1/6
